“And” between values parts separate entries of the source, which are not always exact repeats. Identical values can stand only once.
How the values were obtained:
Format in all cases: in vivo
[1] = system: mice; assay: Acute toxicity in mice
Method: The synthesized compound was assessed for its acute toxicity using mice sourced from the National Institute of Health in Pakistan. The mice for the experiment were categorized into several groups. Some groups were designated to receive the test samples, and another was set as a control group. […]. These compounds were first dissolved in normal saline before being administered. […]. The mice were monitored for a period of 24 h to 4 weeks following the administration of the pivalate-based Michael product. The study closely observed the mice for any irregular behavior, such as ataxia, aggressive reactions, and potential allergic symptoms, among others. Furthermore, any harmful outcomes or lethality were also recorded. These observations and recorded adverse events were compared between the group treated with the test compound and the control group. These comparisons offer valuable insights into the toxicity levels of the newly synthesized compounds [47].

[2] = system: carrageenan-induced paw edema; assay: Carrageenan-induced paw edema model; conditions: mice
Method: The anti-inflammatory activity of MAK01 was evaluated through a carrageenan-induced paw edema model. The mice, with weights ranging from 25 to 30 g, were separated into five distinct groups, these being Vehicle Group 1, Aspirin Group 2, and different concentrations of MAK01 in Groups 3–5. Each of these groups comprised five mice. The negative control group in the experiment received a specific solution comprising normal saline, DMSO, and Tween-80. The mixture contained 94% normal saline, 5% DMSO, and 1% Tween-80, delivered at a concentration of 10 mL per kg. In contrast, the positive control group in the assay received the comparator aspirin at a precise dose of 10 mg/kg. The test samples were administered at doses of 10 mg/kg, 20 mg/kg, and 30 mg/kg, given intra-peritoneally. After 30 min, a 2% carrageenan suspension (0.2 mL) was administered to each mouse in every group via a subcutaneous injection in the hind paw. In the experiment, a plethysmometer was used to precisely measure inflammation and edema. These measurements were taken at multiple time points both prior to and following the carrageenan administration. Specifically, the readings were recorded at 1, 2, 3, 4, and 5 h intervals to monitor the progress of the inflammatory response and paw swelling. These obtained results were then compared against the outcomes from the negative control group. The gathered data from the experiment, relating to the impact of the newly synthesized compounds on paw edema, were carefully processed to derive the percentage of edema inhibition. Using the below equation, the percent inhibition was calculated. % Inhibition=Ce−Te/Ce×100
In the formula, ‘Ce’ refers to the control group paw edema volume, while ‘Te’ denotes test groups’ paw edema volume.

[3] = system: mice; assay: Hot plate antinociceptive test

CCOC(=O)C(C)(C)C1CC(=O)N(c2ccccc2)C1=O (centres unmarked) [MAK01, ethyl 2-(2,5-dioxo-1-phenylpyrrolidin-3-yl)-2-methylpropanoate]
Lethal dose ([1]; both, mouse, in vivo, po): ~1000 mg per kg of body weight | Signs of toxicity ([1]; mice, oral, doses higher than 1000 mg per kg): distress, agitation, convulsions, discomfort, and abnormal behavior | Paw Edema Inhibition in Percent ([2]; dose 10 mg/kg, 1 h): 30.3 ± 0.77 ^ns % | Paw Edema Inhibition in Percent ([2]; dose 10 mg/kg, 2 h): 33.34 ± 0.98 % | Paw Edema Inhibition in Percent ([2]; dose 10 mg/kg, 3 h): 19.62 ± 0.64 % | Paw Edema Inhibition in Percent ([2]; dose 10 mg/kg, 4 h): 31.44 ± 0.74 % | Paw Edema Inhibition in Percent ([2]; dose 10 mg/kg, 5 h): 31.22 ± 0.84 % | Paw Edema Inhibition in Percent ([2]; dose 20 mg/kg, 1 h): 34.7 ± 0.74 ^ns % | Paw Edema Inhibition in Percent ([2]; dose 20 mg/kg, 2 h): 34.7 ± 0.74% and 34.54 ± 0.76 % | Paw Edema Inhibition in Percent ([2]; dose 20 mg/kg, 3 h): 21.42 ± 0.64 % | Paw Edema Inhibition in Percent ([2]; dose 20 mg/kg, 4 h): 29.52 ± 0.63 % | Paw Edema Inhibition in Percent ([2]; dose 20 mg/kg, 5 h): 31.85 ± 0.32 % | Paw Edema Inhibition in Percent ([2]; dose 30 mg/kg, 1 h): 38.74 ± 0.81 ^ns % | Paw Edema Inhibition in Percent ([2]; dose 30 mg/kg, 2 h): 39.20 ± 0.86 % | Paw Edema Inhibition in Percent ([2]; dose 30 mg/kg, 3 h): 34.4 ± 0.64 % | Paw Edema Inhibition in Percent ([2]; dose 30 mg/kg, 4 h): 37.64 ± 0.86 % | Paw Edema Inhibition in Percent ([2]; dose 30 mg/kg, 5 h): 40.58 ± 0.84% and 40.58% | Latency Time (Seconds) on Hot Plate ([3]; dose 50 mg/kg, 30 min): 10.32 ± 0.82 s | Latency Time (Seconds) on Hot Plate ([3]; dose 50 mg/kg, 60 min): 9.96 ± 0.16 s | Latency Time (Seconds) on Hot Plate ([3]; dose 50 mg/kg, 90 min): 9.63 ± 0.26 s | Latency Time (Seconds) on Hot Plate ([3]; dose 50 mg/kg, 120 min): 9.49 ± 0.25 s | Latency Time (Seconds) on Hot Plate ([3]; dose 50 mg/kg, 150 min): 9.16 ± 0.81 s | Latency Time (Seconds) on Hot Plate ([3]; dose 100 mg/kg, 30 min): 12.16 ± 0.51 Seconds and 12.16 ± 0.51 ^ns Seconds | Latency Time (Seconds) on Hot Plate ([3]; dose 100 mg/kg, 60 min): 11.92 ± 0.71 s | Latency Time (Seconds) on Hot Plate ([3]; dose 100 mg/kg, 90 min): 11.76 ± 0.87 ^ns Seconds | Latency Time (Seconds) on Hot Plate ([3]; dose 100 mg/kg, 120 min): 11.14 ± 0.91 ^ns Seconds | Latency Time (Seconds) on Hot Plate ([3]; dose 100 mg/kg, 150 min): 10.96 ± 0.74 s | Latency Time (Seconds) on Hot Plate ([3]; dose 150 mg/kg, 30 min): 12.93 ± 0.45 Seconds and 12.93 ± 0.45 ^ns Seconds | Latency Time (Seconds) on Hot Plate ([3]; dose 150 mg/kg, 60 min): 12.85 ± 0.84 ^ns Seconds | Latency Time (Seconds) on Hot Plate ([3]; dose 150 mg/kg, 90 min): 12.42 ± 0.36 ^ns Seconds | Latency Time (Seconds) on Hot Plate ([3]; dose 150 mg/kg, 120 min): 11.98 ± 0.74 ^ns Seconds | Latency Time (Seconds) on Hot Plate ([3]; dose 150 mg/kg, 150 min): 11.76 ± 0.41 ^ns Seconds
